In the experiment the target is T1, γ-secretase (Homo sapiens, UniProt P49768).
T1 construct: uses a HEK293 membrane fraction as a source of γ-secretase; endogenous in cells; host or cells: HEK293 (microsomal membrane fraction, solubilised in 0.25% CHAPSO)
As to the kind of experiment: in vitro assay of γ-secretase activity (HEK293 membrane fraction, recombinant APP substrate, Abeta ELISA). The format is biochemical. Conditions: γ-secretase inhibition; HEK293 membrane fraction solubilized in 0.25% CHAPSO, recombinant human APP C-terminal 100 amino acids substrate, Abeta detected by ELISA. From the text: Description of 1γ-Secretase Assay The activity of test compounds can be evaluated in assays which measure the proteolytic cleavage of suitable substrates by γ-secretase activity. These can be cellular assays where e.g., a substrate of the γ-secretase is fused in its cytoplasmic domain to a transcription factor. Cells are transfected with this fusion gene and a reporter gene, e.g., firefly luciferase, which expression is enhanced by the transcription factor. Cleavage of the fused substrate by γ-secretase will lead to expression of the reporter gene which can be monitored in appropriate assays. The γ-secretase activity can also be determined in cell-free in vitro assays where e.g., a cell lysate containing the γ-secretase complex is incubated with a suitable APP-derived substrate which is cleaved to the Abeta peptides. The amount of produced peptides can be determined with specific ELISA assays. Cell lines of neuronal origin secrete Abeta peptides which can be measured with the specific ELISA assay. Treatment with compounds which inhibit γ-secretase leads to a reduction of secreted Abeta thus providing a measure of inhibition. The in vitro assay of γ-secretase activity uses a HEK293 membrane fraction as a source of γ-secretase and a recombinant APP substrate. Latter consist of the C-terminal 100 amino acids of human APP fused to a 6× Histidin tail for purification which is expressed in E. coli in a regulatable expression vector, e.g. pEt15. This recombinant protein corresponds to the truncated APP fragment which results after […] of the extracellular domain and which constitutes the γ-secretase substrate. The assay principle is described in Li Y M et al, PNAS 97(11), 6138-6143 (2000). Hek293 cells are mechanically disrupted and the microsomal fraction is isolated by differential centrifugation. The membranes are solubilized in detergent (0.25% CHAPSO) and incubated with the APP substrate. The Abeta peptides which are produced by γ-secretase cleavage of the substrate are detected by specific ELISA assays as described (Brockhaus M et al, Neuroreport 9(7), 1481-1486 (1998).
In general terms: In an ELISA, binding on a coated surface is turned into a signal by an enzyme label.

SMILES strings stand for the structures.

In general, IC50 refers to the concentration that gives 50% inhibition.

`CC(F)(C(=O)NCC(F)(F)C(F)(F)F)C(=O)N[C@@H]1C(=O)N(CCO)c2ccccc2-c2ccccc21` (stereo partly drawn) [Example 16, 2-Fluoro-N—[(S)-5-(2-hydroxy-ethyl)-6-oxo-6,7-dihydro-5H-dibenzo[b,d]azepin-7-yl]-2-methyl-N′-(2,2,3,3,3-pentafluoro-propyl)-malonamide]: the IC50 is 3 nM.

Turning to `CCOC(C(=O)NCC(F)(F)C(F)(F)F)C(=O)N[C@@H]1C(=O)N(CCO)c2ccccc2-c2ccccc21` (stereo partly drawn) [Example 17, 2-Ethoxy-N—[(S)-5-(2-hydroxy-ethyl)-6-oxo-6,7-dihydro-5H-dibenzo[b,d]azepin-7-yl]-N′-(2,2,3,3,3-pentafluoro-propyl)-malonamide], the IC50 was found to be 4 nM.

Take `C[C@@](F)(C(=O)NCC(F)(F)C(F)(F)F)C(=O)N[C@@H]1C(=O)N(CCOCc2ccccc2)c2ccccc2-c2ccccc21` [Example 22, (R)—N—[(S)-5-(2-Benzyloxy-ethyl)-6-oxo-6,7-dihydro-5H-dibenzo[b,d]azepin-7-yl]-2-fluoro-2-methyl-N′-(2,2,3,3,3-pentafluoro-propyl)-malonamide]: the IC50 came to 2 nM.

As to `C[C@](F)(C(=O)NCC(F)(F)C(F)(F)F)C(=O)N[C@@H]1C(=O)N(CCOCc2ccccc2)c2ccccc2-c2ccccc21` [Example 23, (S)—N—[(S)-5-(2-Benzyloxy-ethyl)-6-oxo-6,7-dihydro-5H-dibenzo[b,d]azepin-7-yl]-2-fluoro-2-methyl-N′-(2,2,3,3,3-pentafluoro-propyl)-malonamide], the IC50 was 16 nM.

For `COCCN1C(=O)[C@@H](NC(=O)CC(=O)NCC(F)(F)C(F)(F)F)c2ccccc2-c2ccccc21` [Example 24, N—[(S)-5-(2-Methoxy-ethyl)-6-oxo-6,7-dihydro-5H-dibenzo[b,d]azepin-7-yl]-N′-(2,2,3,3,3-pentafluoro-propyl)-malonamide], the IC50 amounted to 34 nM.

For the molecule `COCCN1C(=O)[C@@H](NC(=O)[C@H](C)OC(=O)NCC(F)(F)C(F)(F)F)c2ccccc2-c2ccccc21` [Example 25, (2,2,3,3,3-Pentafluoro-propyl)-carbamic acid (S)-1-[(S)-5-(2-methoxy-ethyl)-6-oxo-6,7-dihydro-5H-dibenzo[b,d]azepin-7-ylcarbamoyl]-ethyl ester], the IC50 amounted to 6 nM.

`C[C@@](F)(C(=O)NCC(F)(F)C(F)(F)F)C(=O)N[C@@H]1C(=O)N(CCO)c2ccccc2-c2ccccc21` [Example 26, (R)-2-Fluoro-N—[(S)-5-(2-hydroxy-ethyl)-6-oxo-6,7-dihydro-5H-dibenzo[b,d]azepin-7-yl]-2-methyl-N′-(2,2,3,3,3-pentafluoro-propyl)-malonamide]: the 50% inhibitory concentration (IC50) worked out at 1 nM.

On to `C[C@](F)(C(=O)NCC(F)(F)C(F)(F)F)C(=O)N[C@@H]1C(=O)N(CCO)c2ccccc2-c2ccccc21` [Example 27, (S)-2-Fluoro-N—[(S)-5-(2-hydroxy-ethyl)-6-oxo-6,7-dihydro-5H-dibenzo[b,d]azepin-7-yl]-2-methyl-N′-(2,2,3,3,3-pentafluoro-propyl)-malonamide], for which the IC50 worked out at 4 nM.

Regarding `O=C(CC(=O)N[C@@H]1C(=O)N(CCOCc2ccccc2)c2ccccc2-c2ccccc21)NCCC(F)(F)F` [Example 28, N—[(S)-5-(2-Benzyloxy-ethyl)-6-oxo-6,7-dihydro-5H-dibenzo[b,d]azepin-7-yl]-N′-(3,3,3-trifluoro-propyl)-malonamide], the IC50 is 68 nM.

`O=C(CC(=O)N[C@@H]1C(=O)N(CCOCc2ccccc2)c2ccccc2-c2ccccc21)NCCC(F)(F)C(F)(F)F` [Example 29, N—[(S)-5-(2-Benzyloxy-ethyl)-6-oxo-6,7-dihydro-5H-dibenzo[b,d]azepin-7-yl]-N′-(3,3,4,4,4-pentafluoro-butyl)-malonamide]: the IC50 was 18 nM.

As for `O=C(CC(=O)N[C@@H]1C(=O)N(CCO)c2ccccc2-c2ccccc21)NCCC(F)(F)F` [Example 30, N—[(S)-5-(2-Hydroxy-ethyl)-6-oxo-6,7-dihydro-5H-dibenzo[b,d]azepin-7-yl]-N′-(3,3,3-trifluoro-propyl)-malonamide], the IC50 was found to be 75 nM.

As for `O=C(CC(=O)N[C@@H]1C(=O)N(CCO)c2ccccc2-c2ccccc21)NCCC(F)(F)C(F)(F)F` [Example 31, N—[(S)-5-(2-Hydroxy-ethyl)-6-oxo-6,7-dihydro-5H-dibenzo[b,d]azepin-7-yl]-N′-(3,3,4,4,4-pentafluoro-butyl)-malonamide], the IC50 was 200 nM.

In the case of `COCCN1C(=O)[C@@H](NC(=O)[C@@](C)(F)C(=O)NCC(F)(F)C(F)(F)F)c2ccccc2-c2ccccc21` [Example 32, (S)-2-Fluoro-N—[(S)-5-(2-methoxy-ethyl)-6-oxo-6,7-dihydro-5H-dibenzo[b,d]azepin-7-yl]-2-methyl-N′-(2,2,3,3,3-pentafluoro-propyl)-malonamide], the IC50 stood at 18 nM.

For the molecule `COCCN1C(=O)[C@@H](NC(=O)[C@](C)(F)C(=O)NCC(F)(F)C(F)(F)F)c2ccccc2-c2ccccc21` [Example 33, (R)-2-Fluoro-N—[(S)-5-(2-methoxy-ethyl)-6-oxo-6,7-dihydro-5H-dibenzo[b,d]azepin-7-yl]-2-methyl-N′-(2,2,3,3,3-pentafluoro-propyl)-malonamide], the IC50 turned out to be 4 nM.

As for `COCCN1C(=O)[C@@H](NC(=O)C(C)(O)C(=O)NCC(F)(F)C(F)(F)F)c2ccccc2-c2ccccc21` (stereo partly drawn) [Example 34, 2-Hydroxy-N—[(S)-5-(2-methoxy-ethyl)-6-oxo-6,7-dihydro-5H-dibenzo[b,d]azepin-7-yl]-2-methyl-N′-(2,2,3,3,3-pentafluoro-propyl)-malonamide], the IC50 was determined as 4 nM.

Turning to `C[C@H](OC(=O)NCCC(F)(F)F)C(=O)N[C@@H]1C(=O)N(CCOCc2ccccc2)c2ccccc2-c2ccccc21` [Example 35, (3,3,3-Trifluoro-propyl)-carbamic acid (S)-1-[(S)-5-(2-benzyloxy-ethyl)-6-oxo-6,7-dihydro-5H-dibenzo[b,d]azepin-7-ylcarbamoyl]-ethyl ester], the IC50 came out at 22 nM.

In the case of `C[C@H](OC(=O)NCCC(F)(F)C(F)(F)F)C(=O)N[C@@H]1C(=O)N(CCOCc2ccccc2)c2ccccc2-c2ccccc21` [Example 36, (3,3,4,4,4-Pentafluoro-butyl)-carbamic acid (S)-1-[(S)-5-(2-benzyloxy-ethyl)-6-oxo-6,7-dihydro-5H-dibenzo[b,d]azepin-7-ylcarbamoyl]-ethyl ester], the concentration for half-maximal inhibition (IC50) worked out at 13 nM.

On to `C[C@H](OC(=O)NCC(F)(F)F)C(=O)N[C@@H]1C(=O)N(CCOCc2ccccc2)c2ccccc2-c2ccccc21` [Example 37, (2,2,2-Trifluoro-ethyl)-carbamic acid (S)-1-[(S)-5-(2-benzyloxy-ethyl)-6-oxo-6,7-dihydro-5H-dibenzo[b,d]azepin-7-ylcarbamoyl]-ethyl ester], for which the IC50 amounted to 18 nM.

For `C[C@H](OC(=O)NCCC(F)(F)F)C(=O)N[C@@H]1C(=O)N(CCO)c2ccccc2-c2ccccc21` [Example 39, (3,3,3-Trifluoro-propyl)-carbamic acid (S)-1-[(S)-5-(2-hydroxy-ethyl)-6-oxo-6,7-dihydro-5H-dibenzo[b,d]azepin-7-ylcarbamoyl]-ethyl ester], the IC50 is 16 nM.

Turning to `C[C@@](F)(C(=O)NCCC(F)(F)C(F)(F)F)C(=O)N[C@@H]1C(=O)N(CCOCc2ccccc2)c2ccccc2-c2ccccc21` [Example 40, (R)—N—[(S)-5-(2-Benzyloxy-ethyl)-6-oxo-6,7-dihydro-5H-dibenzo[b,d]azepin-7-yl]-2-fluoro-2-methyl-N′-(3,3,4,4,4-pentafluoro-butyl)-malonamide], the IC50 was 5 nM.

Take `C[C@H](OC(=O)NCCF)C(=O)N[C@@H]1C(=O)N(CCOCc2ccccc2)c2ccccc2-c2ccccc21` [Example 41, (2-Fluoro-ethyl)-carbamic acid (S)-1-[(S)-5-(2-benzyloxy-ethyl)-6-oxo-6,7-dihydro-5H-dibenzo[b,d]azepin-7-ylcarbamoyl]-ethyl ester]: the IC50 turned out to be 480 nM.

`C[C@@](F)(C(=O)NCCC(F)(F)C(F)(F)F)C(=O)N[C@@H]1C(=O)N(CCO)c2ccccc2-c2ccccc21` [Example 42, (R)-2-Fluoro-N—[(S)-5-(2-hydroxy-ethyl)-6-oxo-6,7-dihydro-5H-dibenzo[b,d]azepin-7-yl]-2-methyl-N′-(3,3,4,4,4-pentafluoro-butyl)-malonamide]: the IC50 is 1 nM.

For the molecule `C[C@](F)(C(=O)NCC(F)(F)F)C(=O)N[C@@H]1C(=O)N(CCOCc2ccccc2)c2ccccc2-c2ccccc21` [Example 43, (S)—N—[(S)-5-(2-Benzyloxy-ethyl)-6-oxo-6,7-dihydro-5H-dibenzo[b,d]azepin-7-yl]-2-fluoro-2-methyl-N′-(2,2,2-trifluoro-ethyl)-malonamide], the IC50 stood at 13 nM.
